# Test results reported in article PMC6950218 (Journal of Medicinal Chemistry, 2011).
# Like-named read-outs stand apart in the source and are kept apart here.
# Key:
# P. falciparum strain 3D7 = assay: Antimalarial proliferation inhibition assay; assay type: cell-based, Plasmodium falciparum; details: for IC50: mean of at least two experiments
# [1] = not given; remark: listed apart in the source
# [2] = not given; remark: listed apart in the source
# P. falciparum strain W2 = assay: Antimalarial proliferation inhibition assay; assay type: cell-based, Plasmodium falciparum; details: mean of at least two experiments
# Caco-2 = details: for Caco-2 A–B: apical to basolateral; for Caco-2 B–A: basolateral to apical
# [3] = not given; remark: listed apart in the source
# Huh7 = assay: Cytotoxicity Huh7; assay type: cell-based
# CHO = assay: Cytotoxicity CHO; assay type: cell-based
# HeLa = assay: Cytotoxicity HeLa; assay type: cell-based
# [4] = Maximum tolerable dose test in rats; details: rats in vivo
# HEp2 = assay: Cytotoxicity HEp2; assay type: cell-based
# Ba/F3 = assay: Cytotoxicity Ba/F3; assay type: cell-based
# [5] = Plasmodium falciparum, 3D7, read-out: P. falciparum strain IC50 3D7, resynthesized powders (data in brackets)
# [6] = resynthesized powders (data in brackets)
# [7] = Plasmodium falciparum, W2, read-out: P. falciparum strain IC50 W2, resynthesized powders (data in brackets)
compound,measurement,setting,value
"3-Amino-1-(2-(4-fluorophenyl)-3-(4-fluorophenylamino)-5,6-dihydroimidazo[1,2-a]pyrazin-7(8H)-yl)propan-1-one [Compound 29]",IC50,P. falciparum strain 3D7; read-out: P. falciparum strain IC50 3D7,30 nM
same,hepatic microsome metabolic stability (extraction ratio) human,,0.21
same,hepatic microsome metabolic stability (extraction ratio) mouse,[1],0.21
same,PAMPA (% absorbed),[2],low
same,IC50,P. falciparum strain W2; read-out: P. falciparum strain IC50 W2,23 nM
same,Caco-2 A–B,Caco-2,0.99 cm/s × 10^6
same,Caco-2 B–A,Caco-2,2.99 cm/s × 10^6
same,hepatic microsome metabolic stability (extraction ratio) rat,[3],0.38
"NCC(=O)N1CCn2c(nc(-c3ccccc3)c2Nc2ccc3c(c2)OCO3)C1 [Compound 1a, 2-Amino-1-(3-(benzo[d][1,3]dioxol-5-ylamino)-2-phenyl-5,6-dihydroimidazo[1,2-a]pyrazin-7(8H)-yl)ethanone]",IC50,P. falciparum strain 3D7; [5],460 nM
same,cyotoxicity Huh7,Huh7; HTS DMSO stock solutions,> 10 µM
same,cyotoxicity Huh7,Huh7; [6],> 100 µM
same,IC50,P. falciparum strain W2; [7],473 nM
"NC(Cc1ccccc1)C(=O)N1CCn2c(nc(-c3ccccc3)c2Nc2ccc3c(c2)OCO3)C1 (stereo not drawn) [Compound 1b, 2-Amino-1-(3-(benzo[d][1,3]dioxol-5-ylamino)-2-phenyl-5,6-dihydroimidazo[1,2-a]pyrazin-7(8H)-yl)-3-phenylpropan-1-one]",IC50,P. falciparum strain 3D7; [5],119 nM
same,cyotoxicity Huh7,Huh7; HTS DMSO stock solutions,> 10 µM
same,cyotoxicity Huh7,Huh7; [6],> 79 µM
same,IC50,P. falciparum strain W2; [7],122 nM
"CC(C)CC(N)C(=O)N1CCn2c(nc(-c3ccccc3)c2Nc2ccc3c(c2)OCO3)C1 (stereo not drawn) [Compound 1c, 2-Amino-1-(3-(benzo[d][1,3]dioxol-5-ylamino)-2-phenyl-5,6-dihydroimidazo[1,2-a]pyrazin-7(8H)-yl)-4-methylpentan-1-one]",IC50,P. falciparum strain 3D7; [5],30 nM
same,cyotoxicity Huh7,Huh7; HTS DMSO stock solutions,> 10 µM
same,cyotoxicity Huh7,Huh7; [6],42 µM
same,IC50,P. falciparum strain W2; [7],29 nM
"NCC(=O)N1CCn2c(nc(-c3ccc(F)cc3)c2Nc2ccc(F)cc2)C1 [Compound 5, 2-Amino-1-(2-(4-fluorophenyl)-3-(4-fluorophenylamino)-5,6-dihydroimidazo[1,2-a]pyrazin-7(8H)-yl)ethanone]",fold more potent than the original hit compound 1a,P. falciparum strain 3D7,4 fold
same,PAMPA (% absorbed),[2],52 % absorbed
same,Caco-2 A–B,Caco-2,0.70 cm/s × 10^6
same,Caco-2 B–A,Caco-2,2.55 cm/s × 10^6
"CC(C)(N)C(=O)N1CCn2c(nc(-c3ccc(F)cc3)c2Nc2ccc(F)cc2)C1 [Compound 11, 2-Amino-1-(2-(4-fluorophenyl)-3-(4-fluorophenylamino)-5,6-dihydroimidazo[1,2-a]pyrazin-7(8H)-yl)-2-methylpropan-1-one]",cytotoxicity TC50 CHO,CHO,greater than 12 μM
same,cytotoxicity TC50 HeLa,HeLa,greater than 12 μM
same,cytotoxicity TC50 Huh7,Huh7,greater than 12 μM
same,PAMPA (% absorbed),[2],81 % absorbed
same,maximum tolerable dose test,[4],no gross effects at doses up to 500 mg/kg
same,Caco-2 A–B,Caco-2,3.05 cm/s × 10^6
same,Caco-2 B–A,Caco-2,8.38 cm/s × 10^6
same,cytotoxicity TC50 HEp2,HEp2,greater than 12 μM
"NCC(=O)N1CCn2c(nc(-c3cccc(F)c3)c2Nc2ccc(F)cc2)C1 [Compound 18, 2-Amino-1-(3-((4-fluorophenyl)amino)-2-(3-fluorophenyl)-5,6-dihydroimidazo[1,2-a]pyrazin-7(8H)-yl)ethanone]",PAMPA (% absorbed),[2],low
same,Caco-2 A–B,Caco-2,0.56 cm/s × 10^6
same,Caco-2 B–A,Caco-2,2.32 cm/s × 10^6
"NCC(=O)N1CCn2c(nc(-c3ccc(F)cc3)c2Nc2ccc(Cl)cc2)C1 [Compound 27, 2-Amino-1-(3-(4-chlorophenylamino)-2-(4-fluorophenyl)-5,6-dihydroimidazo[1,2-a]pyrazin-7(8H)-yl)ethanone]",PAMPA (% absorbed),[2],52 % absorbed
same,Caco-2 A–B,Caco-2,0.44 cm/s × 10^6
same,Caco-2 B–A,Caco-2,1.25 cm/s × 10^6
"CC(C)(N)C(=O)N1CCn2c(nc(-c3ccc(F)cc3)c2Nc2ccc(Cl)cc2)C1 [Compound 28, 2-Amino-1-(3-(4-chlorophenylamino)-2-(4-fluorophenyl)-5,6-dihydroimidazo[1,2-a]pyrazin-7(8H)-yl)-2-methylpropan-1-one]",PAMPA (% absorbed),[2],89 % absorbed
same,Caco-2 A–B,Caco-2,1.46 cm/s × 10^6
same,Caco-2 B–A,Caco-2,1.86 cm/s × 10^6
"CC(C)(N)C(=O)N1CCn2c(nc(-c3ccc(F)cc3)c2Nc2ccc(F)c(F)c2)C1 [Compound 30, 2-Amino-1-(3-(3,4-difluorophenylamino)-2-(4-fluorophenyl)-5,6-dihydroimidazo[1,2-a]pyrazin-7(8H)-yl)-2-methylpropan-1-one]",cytotoxicity TC50 CHO,CHO,greater than 12 μM
same,cytotoxicity TC50 HeLa,HeLa,greater than 12 μM
same,cytotoxicity TC50 Huh7,Huh7,greater than 12 μM
same,PAMPA (% absorbed),[2],86 % absorbed
same,micronucleus test,Micronucleus test,negative
same,cytotoxicity TC50 Ba/F3,Ba/F3,greater than 12 μM
same,Caco-2 A–B,Caco-2,0.14 cm/s × 10^6
same,Caco-2 B–A,Caco-2,1.03 cm/s × 10^6
same,mini-Ames test,mini-Ames test,negative
same,cytotoxicity TC50 HEp2,HEp2,greater than 12 μM
"CC(C)(N)C(=O)N1CCn2c(nc(-c3ccc(F)cc3)c2Nc2ccc(Cl)c(F)c2)C1 [Compound 32, 2-Amino-1-(3-(4-chloro-3-fluorophenylamino)-2-(4-fluorophenyl)-5,6-dihydroimidazo[1,2-a]pyrazin-7(8H)-yl)-2-methylpropan-1-one]",PAMPA (% absorbed),[2],94 % absorbed
same,Caco-2 A–B,Caco-2,0.84 cm/s × 10^6
same,Caco-2 B–A,Caco-2,0.87 cm/s × 10^6
